Assay results reported in patent US20260158070A1, “COMPOSITIONS AND METHODS FOR THE TREATMENT AND DIAGNOSIS OF CANCERS ASSOCIATED WITH SURFACE K-RAS” (UNIVERSITY OF MARYLAND, BALTIMORE, priority 2023, published 2026).

Key:
PANC-1 cells [1] = experiment: Surface K-Ras availability after drug treatment (antibody 1 staining, MFI fold change); assay type: cell-based, human
Method: For 5-FU treatment, 100,000 PANC-1 cells were seeded into 24 well replicate plates. Cells were allowed to grow for 24 hours before 10 uM of 5-FU was added to the culture media. At 0-, 72-, and 120-hours cells were dislodged by using TryPLE express and resuspended in buffer containing PBS pH 7.2, 5% FCS. Cells were stained with human K-Ras antibody 1. All staining was performed at 10 μg/ml of antibody concentration and a volume of 100ul for 30 minutes on ice in V-bottom 96 well plates. Surface K-Ras staining was quantitated by measuring the MFI of cells mock treated or treated with 5-FU. The fold change was calculated by normalizing to the cells stained with isotype control.

PANC-1 cells [2] = experiment: Human Fab-ZAP assay with MRTX1133 treatment (XTT); assay type: cell-based; settings: 10 nM MRTX1133, 4.5 nM FabZAP, 5 days
Text: In this example, we used the commercially available human Fab-ZAP assay (Advanced Targeting Systems Inc.), similar to Example 3, to test whether increasing surface K-Ras availability with MRTX1133 would potentiate killing with surface K-Ras targeted ADCs. For the experiments described below, we utilized the Fab-ZAP human kit [IT-51, KIT-51](atsbio.com/products/it51/), consisting of a chemical conjugate of goat […] monovalent antibody and the ribosome-inactivating protein, saporin. The antibodies used in this kit are affinity-purified polyclonal antibodies against both the heavy and light chain of […].
In one experiment, we tested whether increasing surface K-Ras availability with the small molecule inhibitor MRTX1133 would potentiate killing with surface K-Ras targeted ADCs. […] After 5 days incubation at 37 C in a 5% CO2 incubator, the percentage of viable cells compared to control wells with 4.5 nM FabZAP alone was determined using XTT assay according to the described protocol (Advanced Targeting Systems Inc cytotoxic assay protocol). […] Plates were then incubated at 37 C for at least 30 mins, and absorbance was read at 450 nm in a plate reader. This assay relies on detecting the number of viable cells remaining on the day of development as measured via cell metabolism of a colorimetric molecule within the developing reagents. […]

[3] = system: Panc-1 (K-Ras G12D mutant); experiment: Growth and viability of pancreatic cancer cells cultured with R11.1.6 constructs (cell count, Trypan blue); assay type: cell-based, human; settings: Panc-1, 20,000 cells/well, counted after 5 days of culture
Method: We next evaluated growth as well as viability of two pancreatic cancer cell lines driven by either G12D (Panc-1) or G12C (MiaPaca-2) mutant K-Ras in vitro. We plated 20,000 cells/well in Dulbecco's modified Eagles media (DMEM) with 10% fetal bovine serum (FBS) in a flat bottom 96 well plate and counted cells after 5 days of culture. Viability of cells were calculated based on Trypan blue dye exclusion method, where dead cells were blue due to uptake of the viability dye and live cells were not stained. Viability was measured by using Countess II FL cell viability and cell counter instrument by Invitrogen (ThermoFisher USA).
Further evaluation of growth inhibition was performed with control Sulfolobus solfataricus-derived proteins of similar molecular weight. […] We started with 200,000 cells in a 96 well V-bottom plate and used BD phosflow buffer set III (BD biosciences, catalog number 558050) to stabilize and optimize the phosphor moiety. Next, we stained the cells with anti-phospho-Akt (ser473, Clone D9E) PE conjugated (Cell Signaling Technologies, Catalog number 5315S) at a concentration of 0.125 ug/100 ul or anti-phosho-ERK1/2, PE conjugated (ThermoFisher USA catalog number 12-9109-42) at a concentration of 0.125 ug/100 ul. Cells were washed in FACS staining buffer and run in a LSR Fortessa II flow cytometer (BD Biosciences, USA). […]

[4] = system: human tumor cell line PANC-1; experiment: Cell line-derived xenograft model of pancreatic cancer, in vivo ADC experiment; design: species or system Balb/c nude mice; settings: 10 mg/kg i.v. QW × 2 weeks; gemcitabine 50 mg/kg i.p. BIW × 2 weeks
Method: DXd is a protease cleavable linker attached to a derivative of exatecan that acts as topoisomerase I inhibitor. DXd targeted to cancer cells by antibodies as an ADC has been used by FDA-approved […] is a conjugation of anti-Her-2 antibody and deruxtecan. DXd was conjugated via stochastic maleimide conjugation to interchain cysteines of the antibodies. The antibodies were first reduced using 10× molar equivalents of 10 mM TCEP at 37° C. for 90 minutes with shaking. The reduced antibodies were then conjugated with 10× molar equivalents of 10 mM DXd at room temperature for 2 hours. Conjugated antibodies were evaluated for the drug to antibody ratio (DAR) by reducing 10 μg of the crude conjugate with DTT at 37° C. for 30 minutes. The final DAR for the conjugated antibodies was 8. The multimeric state of the conjugated antibodies was evaluated by size exclusion chromatography and confirmed to be monomeric. Conjugated antibodies were purified from unconjugated DXd by dialysis against PBS, pH 5.6 with a 10K molecular-weight cut-off (MWCO) membrane for 48 hours. Next, we utilized a cell line-derived xenograft model of pancreatic cancer, where the human tumor cell line PANC-1 was implanted into Balb/c nude mice. The nude mouse is a naturally mutated mouse that lacks a thymus and hair (nude). […]

[5] = system: AsPC-1 (pancreatic cell line carrying a K-RAS G12D mutation); experiment: Fab-ZAP assay (saporin-linked secondary antibody, XTT); assay type: cell-based; settings: 4.5 nM FabZAP, 5 days
Text: (§1) Saporin is a 30 kDa ribosome-inhibitor which is unable to cross a cell membrane unaided (except at extremely high concentrations). However, when it is conjugated to an internalizing antibody, as previously described (DOI: 10.3390/toxins14030184), it can be used to kill target cells precisely and specifically with little to no off-target toxicity (See, for example, Lund et. al., mAbs, 6(4), 1038-1050, doi.org/10.4161/mabs.28207). […]
(§2) We specifically utilized Panc-1 (pancreatic carcinoma carrying a K-RAS G12D mutation), Capan-2 (pancreatic carcinoma carrying a K-RAS G12V mutation), AsPC-1 (pancreatic cell line carrying a K-RAS G12D mutation), LS180 (colon cancer cell line carrying a K-RAS G12D mutation), SW480 (colon cancer cell lines carrying a K-RAS G12V mutation), Capan-2 (pancreatic cancer cell line carrying a K-RAS G12V mutation), and two lung cancer cell lines (SK-LU-1 carrying a K-RAS G12D mutation and NCI-H2444 carrying a K-RAS G12V mutation). […] After 5 days incubation at 37 C in a 5% CO2 incubator, the percentage of viable cells compared to control wells with 4.5 nM FabZAP alone was determined using XTT assay according to the described protocol (Advanced Targeting Systems Inc cytotoxic assay protocol). […] Plates were then incubated at 37° C. for a minimum of 30 mins and absorbance was read at 450 nm in a plate reader. […]

[6] = system: MiaPaCa-2, a K-Ras G12C expressing pancreatic cancer cell line; experiment: as above; assay type: cell-based; settings: 4.5 nM FabZAP, 5 days
BXPC3 K-Ras^WT = experiment: as above; assay type: cell-based; settings: 4.5 nM FabZAP, 5 days
tumor cell = experiment: Tumor cell killing by saporin alone without targeting antibodies (FIG. 3); assay type: cell-based
Method: FIG. 3 is a graphical representation of tumor cell killing, defined as % of cells alive compared to untreated control cultures with various concentrations of saporin alone without targeting antibodies. Representative of 3 replicates per group. Arrow points to 4.5 nM saporin. This 4.5 nM concentration, conjugated to the secondary antibody, is utilized in the antibody-drug conjugate (ADC) assays described in Example 3.
as §2

[7] = system: Panc-1 (pancreatic carcinoma carrying a K-RAS G12D mutation); experiment: Fab-ZAP assay (saporin-linked secondary antibody, XTT); assay type: cell-based, human; settings: 4.5 nM FabZAP, 5 days
Text: as §1, §2

## O=c1[nH]cc(F)c(=O)[nH]1 [5-FU, fluorouracil]
PANC-1 cells [1]; 10 uM, 0, 72 and 120 hours
  availability of surface K-Ras (MFI fold change): increased the availability of surface K-Ras in Panc-1 cells

## C#Cc1c(F)ccc2cc(O)cc(-c3ncc4c(N5CC6CCC(C5)N6)nc(OC[C@@]56CCCN5C[C@H](F)C6)nc4c3F)c12 [MRTX1133]
PANC-1 cells [1]; 10 nM, 0, 72 and 120 hours
  availability of surface K-Ras (MFI fold change): increased the availability of surface K-Ras on PANC-1 cells
PANC-1 cells [2]
  cell killing (% alive): able to kill cells
[3]
  growth and viability: R11.1.6-mediated inhibition of Panc-1 growth and viability was like the G12D inhibitor MRTX1133

## Nc1ccn([C@@H]2O[C@H](CO)[C@@H](O)C2(F)F)c(=O)n1 [gemcitabine, Gemcitabine]
[4]
  body weight: demonstrated distress based on weight loss
  tumor growth (tumor volume): slowed tumor growth over either ADC or antibody treatment

## Saporin
[5]
  cell-specific killing (% of cells alive): showed killing
[6]
  cell-specific killing (% of cells alive): showed killing
BXPC3 K-Ras^WT
  cell-specific killing (% of cells alive): showed killing
Tumor cell; 4.5 nM concentration used in the ADC assay
  toxicity of saporin without a targeting agent: no toxicity is evident at the 4.5 nM concentration
Tumor cell; without targeting antibodies
  concentration of saporin alone causing cell death: ≥ 100 nM
[7]
  cell-specific killing (% of cells alive): showed killing
